Measurements published in patent US11382985B2, “Anti-tumour immune responses to modified self-epitopes” (Scancell Limited, priority 2015, dated 2022).
Square brackets hold non-standard residues; d marks the D form. Ends that are not written are not given here. Cit = NC(=O)NCCC[C@H](N)C(=O)O

Legend:
PBMCs [1] = experiment: Intracellular cytokine staining of PBMCs; format: cell-based, human; details: donor 4, cultured 13 days in Enolase 241cit, restimulated; label = restimulating peptide
Method: PBMC cultures were set up as detailed above. On day 14 PBMCs were washed and cultured with synthetic peptide (10 μg/ml) in the presence of brefeldin A for 20 hrs at 37° C. Cells were stained with cell surface markers CD4 and CD8 using PE-Cy5 and efluor450 labelled antibodies respectively. Cells were subsequently fixed and permeabilised and stained with IFNγ PE-Cy7 labelled antibody. After staining cells were fixed and analysed on Miltenyi MACSQuant flow cytometer.

B16DP4 tumour = experiment: B16DP4 melanoma tumour challenge; format: in vivo, DP4 transgenic mice; details: peptide immunisation after B16DP4 implant; unimmunized 10%
Method: (§1) C57BL/6 mice (Charles River, UK), HLA-DR4 mice (Taconic, USA), HHDII/DR1 mice (Pasteur institute, France) and the HHD/HLA-DP4 transgenic strain of mouse as described in patent WO2013/017545 A1 (EMMA repository, France) were used, aged between 8 and 12 weeks, and cared for by the staff at Nottingham Trent University. All work was carried out under a Home Office project licence. Peptides were dissolved in PBS to 1 mg/ml and then emulsified (a series of dilutions) with different adjuvants: CpG and MPLA 6 μg/mouse of each (Invivogen, UK), Incomplete Freund's 50 μl/mouse (Sigma, UK), poly I:C 10 μg/mouse (Invivogen, UK), Imiquimod 25 μg/mouse (Invivogen, UK) and GMCSF 10 μg/mouse (Peprotech, UK). Peptides (25 μg/mouse) were injected subcutaneously at the base of the tail. DNA (1 μg/mouse) was coated onto 1.0 μm gold particles (BioRad, Hemel Hempstead, UK) using the manufacturer's instructions and administered intradermally by genegun (BioRad). […]
For tumour challenge experiments mice were challenged with 2.5×10^4 B16 DR4 cells or 1×10^6 LLC2/LLC2 DR4 cells, 2.5×10^5 Pan02 DR4 cells in matrigel or 4×10^5 B16 HHDII DP4 cells subcutaneously on the right flank 3 days prior to primary immunisation and then were immunised as above. Tumour growth was monitored at 3-4 days intervals and mice were humanely euthanized once tumour reached ≥10 mm in diameter.

LLCDR4 tumour = experiment: Lewis lung carcinoma LLC2 with constitutive DR4 (LLCDR4) challenge; format: in vivo, DR4 mice; details: challenge four days before peptide immunisation; all controls died by day 48
Method: as §1, with “(BioRad). Homspera (10 nM/mouse) (PeptideSynthetics, UK) was injected intradermally with genegun immunisation.” for “(BioRad).”
For tumour challenge experiments mice were challenged with 2.5×10^4 B16 DR4 cells or 1×10^6 LLC2/LLC2 DR4 cells, […] above. Tumour growth was monitored at 3-4 days intervals and mice were humanely euthanized once tumour reached ≥10 mm in diameter.

PBMCs [2] = experiment: CFSE proliferation assay on PBMCs; format: cell-based, human; details: Donor 4, day 10
Method: PBMC were isolated from freshly drawn heparinised blood by Ficol-Hypaque (Sigma) gradient centrifugation. PBMC (1.5×10^6 cells/well) were stimulated with single peptides (final concentration 10 μg/ml) in RPMI containing 5% pooled autologous human serum, 2 mM glutamine, 20 mM HEPES and Penicillin-streptomycin (1%) in a final volume of 2 ml. As a negative control PBMC were incubated with medium alone. The PBMC were cultured at 37° C. in an atmosphere of 5% CO2 for 7 and 10 days. To assess proliferation at these times points cells were sampled and stained with surface marker CD4 and CD8 antibodies labelled with PE-Cy5 and efluor 450 respectively. After staining cells were fixed and analysed on a Milteny MACSQuant flow cytometer.

PBMCs [3] = experiment: PBMC culture and IFNγ Elispot; format: cell-based, human; details: donors 1 and 4, PBMCs cultured 13 days; label = restimulating peptide
Method: PBMC were isolated from freshly drawn heparinised blood by Ficol-Hypaque (Sigma) gradient centrifugation. PBMC (1.5×10^6 cells/well) were stimulated with single peptides (final concentration 10 μg/ml) in RPMI containing 5% pooled autologous human serum, 2 mM glutamine, 20 mM HEPES, Penicillin-streptomycin (1%), 10 ng/ml recombinant human IL-15 and 5 ng/ml recombinant human IL-7 in a final volume of 2 ml. Recombinant human IL-2 was added on day 3 at 20 IU/ml. On day 13 cells were washed and added to human IFN elispot assay. Elispot assays were performed using human IFNγ capture and detection reagents according to the manufacturer's instructions (Mabtech, Sweden). In brief, anti-IFNγ antibody was coated onto wells of 96-well Immobilin-P plate. Synthetic peptides (at 10 μg/ml) and 1×10^5 per well PBMCs were added to the wells of the plate in quadruplicate and plates incubated for 20 hrs at 37° C. After incubation, captured IFNγ was detected by biotinylated anti-IFN antibody and developed with a streptavidin alkaline phosphatase and chromogenic substrate. Spots were analysed and counted using an automated plate reader (Cellular Technologies Ltd).

splenocytes = experiment: Screening of citrullinated Enolase peptide pools, ex vivo IFNγ Elispot, DR4 mice; format: in vivo, transgenic DR4 mouse; details: single immunisation with pool of 4-6 human citrullinated peptides, 20 μg each, CpG/MPLA, day 14, label = peptide used for restimulation
Method: as §1, with “UK).” for “UK). Peptides (25 μg/mouse) were injected subcutaneously at the base of the tail. DNA (1 μg/mouse) was coated onto 1.0 μm gold particles (BioRad, Hemel Hempstead, UK) using the manufacturer's instructions and administered intradermally by genegun (BioRad).”
Elispot assays were performed using murine IFNγ, IL-17 and IL-10 capture and detection reagents according to the manufacturer's instructions (Mabtech, Sweden). […] After incubation, captured IFN and IL-10 were detected by biotinylated anti-IFNγ and IL-10 antibodies and developed with a streptavidin alkaline phosphatase and chromogenic substrate. Spots were analysed and counted using an automated plate reader (Cellular Technologies Ltd).
Screening was performed to identify potential citrullinated Enolase epitopes in mice. […] After 14 days the mice were culled and the immune responses to each peptide within the immunising pool were assessed by ex vivo Elispot (FIG. 2). […]

VIGMDVAASEFF-CIT-SGKYDLD (VIGMDVAASEFF[Cit]SGKYDLD; listed as Homo sapiens) [Enolase 241cit]
IFNγ positive CD4 cells (PBMCs [1]): 0.44%
survival rate after 60 days (B16DP4 tumour): 70%
mice surviving to day 58 (LLCDR4 tumour): 40%
lymphocytes that are CFSE^lowCD4^+ (PBMCs [2]): 15%
IFNγ response on restimulation (PBMCs [3]): show responses
IFNγ response to peptide compared to media (splenocytes): significant response
